According to patent US7208517B1, “Endothelin antagonists” (Abbott Labortories, priority 1994, dated 2007):

Target: T1, ETA Receptor (Rattus norvegicus, UniProt P26684)
T1 construct: endogenous in cells; host or cells: MMQ rat pituitary cells (membranes)
T1 sequence (P26684 21-426): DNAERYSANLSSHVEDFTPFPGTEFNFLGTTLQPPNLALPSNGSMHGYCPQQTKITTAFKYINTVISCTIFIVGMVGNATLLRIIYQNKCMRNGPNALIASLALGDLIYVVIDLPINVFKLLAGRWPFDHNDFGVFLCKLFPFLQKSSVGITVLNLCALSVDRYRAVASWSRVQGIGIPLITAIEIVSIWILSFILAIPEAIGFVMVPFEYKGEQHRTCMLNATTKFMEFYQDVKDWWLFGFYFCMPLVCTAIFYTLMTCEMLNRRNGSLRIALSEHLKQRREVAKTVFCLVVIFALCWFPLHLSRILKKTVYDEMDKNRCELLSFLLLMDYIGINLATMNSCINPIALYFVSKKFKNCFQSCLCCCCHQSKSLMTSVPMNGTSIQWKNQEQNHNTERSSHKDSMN
Assay: [125I]ET-1 binding to membranes from MMQ cells (ETA receptor binding assay, Table 4)
Conditions: test compound at 1 μM; 0.1 nM [125I]ET-1, MMQ cell membranes, 4 hours at 25° C.
Description: Preparation of Membranes from MMQ Cells:
MMQ [MacLeod/MacQueen/Login cell line (prolactin secreting rat pituitary cells)] cells from 150 mL culture flasks were collected by centrifugation (1000×g for 10 min) and then homogenized in 25 mL of 10 mM Hepes (pH 7.4) containing 0.25 M sucrose and protease inhibitors [3 mM EDTA, 0.1 mM PMSF, and 5 μg/mL Pepstatin A] by a micro ultrasonic cell disrupter (Kontes). The mixture was centrifuged at 1000×g for 10 min. The supernatant was collected and centrifuged at 60,000×g for 60 min. The precipitate was resuspended in 20 mM Tris, pH 7.4 containing the above protease inhibitors and centrifuged again. The final pellet was resuspended in 20 mM Tris, pH 7.4 containing protease inhibitors and stored at −80° C. until used. Protein content was determined by the Bio-Rad dye-binding protein assay.
Binding assays were performed in 96-well microtiter plates pretreated with 0.1% BSA. […] After incubation, unbound ligands were separated from bound ligands by a vacuum filtration method using glass-fiber filter strips in PHD cell harvesters (Cambridge Technology, Inc., MA), followed by washing the filter strips with saline (1 mL) for three times. Nonspecific binding was determined in the presence of 1 μM ET-1.

Row | % Inhibition of ETA at 1 μM | SMILES
1 | 91.6% | CCCCN(CCCC)C(=O)C(C)N1CC(c2ccc3c(c2)OCO3)C(C(=O)O)C1c1ccc(OC)cc1 (racemic) [Example 91C, trans,trans-2-(4-Methoxyphenyl)-4-(1,3-benzodioxol-5-yl)-1-((N,N-dibutylamino)carbonyl-1-(RS)-ethyl)pyrrolidine-3-carboxylic acid]
2 | 89.8% | COc1ccc(C2C(C(=O)O)C(c3ccc4c(c3)OCO4)CN2CC(=O)N2CC[C@@H]3CCCC[C@H]3C2)cc1 (relative stereo) [Example 293, trans—trans-2-(4-Methoxyphenyl)-4-(1,3-benzodioxol-5-yl)-1-[decahydroisoquinolin-2-carbonylmethyl]-pyrrolidine-3-carboxylic acid]
3 | 87.2% | CCCN(CCN1C[C@H](c2ccc3c(c2)OCO3)[C@@H](C(=O)O)[C@@H]1c1ccc(OC)cc1)S(=O)(=O)CC(C)C (relative stereo) [Example 303, trans,trans-2-(4-Methoxyphenyl)-4-(1,3-benzodioxol-5-yl)-1-(2-(N-propyl-N-(2-methylpropanesulfonyl)amino)ethyl)-pyrrolidine-3-carboxylic acid]
4 | 82.7% | CCCN(CCN1C[C@H](c2ccc3c(c2)OCO3)[C@@H](C(=O)O)[C@@H]1c1ccc(OC)cc1)S(=O)(=O)N(C)C (relative stereo) [Example 315, trans,trans-2-(4-Methoxyphenyl)-4-(1,3-benzodioxol-5-yl)-1-(2-(N-propyl-N-dimethylsulfamoylamino)ethyl)-pyrrolidine-3-carboxylic acid]
5 | 58.4% | COc1ccc(C2C(C(=O)O)C(c3ccc4c(c3)OCO4)CN2CC(N)=O)cc1 (stereo not drawn) [Example 2, trans,trans-2-(4-Methoxyphenyl)-4-(1,3-benzodioxol-5-yl)-1-(aminocarbonylmethyl)-pyrrolidine-3-carboxylic acid]
6 | 42.2% | COc1ccc(C2C(C(=O)O)C(c3ccc4c(c3)OCO4)CN2Cc2ccc(F)cc2)cc1 (stereo not drawn) [Example 3, trans,trans-2-(4-Methoxyphenyl)-4-(1,3-benzodioxol-5-yl)-1-(4-fluorobenzyl)-pyrrolidine-3-carboxylic acid]
7 | 78.2% | CCOCCN1CC(c2ccc3c(c2)OCO3)C(C(=O)O)C1c1ccc(OC)cc1 (stereo not drawn) [Example 4, trans,trans-2-(4-Methoxyphenyl)-4-(1,3-benzodioxol-5-yl)-1-(2-ethoxyethyl)-pyrrolidine-3-carboxylic acid]
8 | 95.1% | CCCOCCN1CC(c2ccc3c(c2)OCO3)C(C(=O)O)C1c1ccc(OC)cc1 (stereo not drawn) [Example 5, trans,trans-2-(4-Methoxyphenyl)-4-(1,3-benzodioxol-5-yl)-1-(2-propoxyethyl)-pyrrolidine-3-carboxylic acid]
9 | 34.9% | COCCOCCN1CC(c2ccc3c(c2)OCO3)C(C(=O)O)C1c1ccc(OC)cc1 (stereo not drawn) [Example 6B, trans,trans-2-(4-Methoxyphenyl)-4-(1,3-benzodioxol-5-yl)-1-[2-(2-methoxyethoxy)ethyl]-pyrrolidine-3-carboxylic acid]
10 | 63.4% | COc1ccc(C2C(C(=O)O)C(c3ccc4c(c3)OCO4)CN2CCc2ccccn2)cc1 (stereo not drawn) [Example 7, trans,trans-2-(4-Methoxyphenyl)-4-(1,3-benzodioxol-5-yl)-1-[2-(2-pyridyl)ethyl]-pyrrolidine-3-carboxylic acid]
11 | 69.2% | CCCCNC(=O)N1CC(c2ccc3c(c2)OCO3)C(C(=O)O)C1c1ccc(OC)cc1 (stereo not drawn) [Example 9, trans,trans-2-(4-Methoxyphenyl)-4-(1,3-benzodioxole-5-yl)-1-(butylaminocarbonyl)-pyrrolidine-3-carboxylic acid]
12 | 66.1% | COc1ccc(NC(=O)N2CC(c3ccc4c(c3)OCO4)C(C(=O)O)C2c2ccc(OC)cc2)cc1 (stereo not drawn) [Example 10, trans,trans-2-(4-Methoxyphenyl)-4-(1,3-benzodioxol-5-yl)-1-(4-methoxyphenylaminocarbonyl)-3-pyrrolidine-3-carboxylic acid]
13 | 73.9% | COc1ccc(C2C(C(=O)O)C(c3ccc4c(c3)OCO4)CN2CC(=O)N2CCCC2)cc1 (stereo not drawn) [Example 17, trans,trans-2-(4-Methoxyphenyl)-4-(1,3-benzodioxol-5-yl)-1-(pyrrolidin-1-ylcarbonylmethyl)-pyrrolidine-3-carboxylic acid]
14 | 56.3% | COc1ccc(C2C(C(=O)O)C(c3ccc4c(c3)OCO4)CN2CCOc2ccccc2)cc1 (stereo not drawn) [Example 21, trans,trans-2-(4-Methoxyphenyl)-4-(1,3-benzodioxol-5-yl)-1-(2-phenoxyethyl)-pyrrolidine-3-carboxylic acid]
15 | 83.0% | COCCOCCN1CC(c2ccc(OC)cc2)C(C(=O)O)C1c1ccc2c(c1)OCO2 (stereo not drawn) [Example 26, trans,trans-2-(1,3-Benzodioxol-5-yl)-4-(4-methoxyphenyl)-1-[2-(2-methoxyethoxy)ethyl)]-pyrrolidine-3-carboxylic acid]
16 | 85.3% | CCCN(C)C(=O)CN1CC(c2ccc3c(c2)OCCO3)C(C(=O)O)C1c1ccc(OC)cc1 (stereo not drawn) [Example 29, trans,trans-2-(4-Methoxyphenyl)-4-(1,4-benzodioxan-6-yl)-1-(N-methyl-N-propylaminocarbonylmethyl)-pyrrolidine-3-carboxylic acid]
17 | 95.5% | COc1ccc(C2C(C(=O)O)C(c3ccc4c(c3)OCO4)CN2CC(=O)N(CCC(C)C)CCC(C)C)cc1 (stereo not drawn) [Example 34, trans,trans-2-(4-Methoxyphenyl)-4-(1,3-benzodioxol-5-yl)-1-(N,N-diisoamylaminocarbonylmethyl)-pyrrolidine-3carboxylic acid]
18 | 91.8% | CCCCCN(CCCCC)C(=O)CN1CC(c2ccc3c(c2)OCO3)C(C(=O)O)C1c1ccc(OC)cc1 (stereo not drawn) [Example 35, trans,trans-2-(4-Methoxyphenyl)-4-(1,3-benzodioxol-5-yl)-1-(N,N-dipentylaminocarbonylmethyl)-pyrrolidine-3-carboxylic acid]
19 | 94.5% | COCCN(CCOC)C(=O)CN1CC(c2ccc3c(c2)OCO3)C(C(=O)O)C1c1ccc(OC)cc1 (stereo not drawn) [Example 36, trans,trans-2-(4-Methoxyphenyl)-4-(1,3-benzodioxol-5-yl)-1-(N,N-di(2-methoxyethyl)aminocarbonylmethyl)-pyrrolidine-3-carboxylic acid]
20 | 47.9% | CCCC#CCN1CC(c2ccc3c(c2)OCO3)C(C(=O)O)C1c1ccc(OC)cc1 (stereo not drawn) [Example 37, trans,trans-2-(4-Methoxyphenyl)-4-(1,3-benzodioxol-5-yl)-1-(2-hexynyl)-pyrrolidine-3-carboxylic acid]
21 | 100.0% | CCCN(CC1CC1)C(=O)CN1CC(c2ccc3c(c2)OCO3)C(C(=O)O)C1c1ccc(OC)cc1 (stereo not drawn) [Example 38, trans,trans-2-(4-Methoxyphenyl)-4-(1,3-benzodioxol-5-yl)-1-(N-cyclopropylmethyl-N-propylaminocarbonylmethyl)-pyrrolidine-3-carboxylic acid]
22 | 83.6% | CCCCCN(C)C(=O)CN1CC(c2ccc3c(c2)OCO3)C(C(=O)O)C1c1ccc(OC)cc1 (stereo not drawn) [Example 39, trans,trans-2-(4-Methoxyphenyl)-4-(1,3-benzodioxol-5-yl)-1-(N-methyl-N-pentylaminocarbonylmethyl)-pyrrolidine-3-carboxylic acid]
23 | 89.9% | C#CCN(C)C(=O)CN1CC(c2ccc3c(c2)OCO3)C(C(=O)O)C1c1ccc(OC)cc1 (stereo not drawn) [Example 41, trans,trans-2-(4-Methoxyphenyl)-4-(1,3-benzodioxol-5-yl)-1-(N-methyl-N-(2-propynyl)aminocarbonylmethyl)-pyrrolidine-3-carboxylic acid]
24 | 95.2% | CCCCCCN(C)C(=O)CN1CC(c2ccc3c(c2)OCO3)C(C(=O)O)C1c1ccc(OC)cc1 (stereo not drawn) [Example 42, trans,trans-2-(4-Methoxyphenyl)-4-(1,3-benzodioxol-5-yl)-1-(N-methyl-N-(n-hexyl)aminocarbonylmethyl)-pyrrolidine-3-carboxylic acid]

Row | SMILES | % Inhibition of ETA at 1 μM
25 | CCCCOCCN1CC(c2ccc3c(c2)OCO3)C(C(=O)O)C1c1ccc(OC)cc1 (stereo not drawn) [Example 23, trans,trans-2-(4-Methoxyphenyl)-4-(1,3-benzodioxol-5-yl)-1-(2-butoxyethyl)-pyrrolidine-3-carboxylic acid] | 85.9%
26 | CCCCOCCN1CC(c2ccc(OC)cc2)C(C(=O)O)C1c1ccc2c(c1)OCO2 (stereo not drawn) [Example 27, trans,trans-2-(1,3-Benzodioxol-5-yl)-4-(4-methoxyphenyl)-1-(butoxyethyl)-pyrrolidine-3-carboxylic acid] | 61.2%
